Results on five compounds are retold here after paper PMC10928227, “Assessing biologic/toxicologic effects of extractables from plastic contact materials for advanced therapy manufacturing using cell painting assay and cytotoxicity screening” (Scientific Reports, 2024).

Where “and” joins values, the source holds several entries; their conditions need not be identical. Identical values can stand only once. Entries after “also recorded” stand apart in the source; their conditions may differ. Like-named read-outs stand apart in the source and are kept apart here.

One data set deals with CHO DG44 cells. Put plainly: Cytotoxicity testing with CHO cells, cell growth spiking experiments (ASTM E3231-19). The format is cell-based, Chinese hamster. The following applies: read-out: EC50 with CHO cells.
For data set [1], the system named is U2OS human osteosarcoma cells. Nature of the data set: Cell painting assay (CPA), morphological profiling and cell count. The data set is classed as cell-based. The conditions noted are these: for Percentage of changed features, AreaShape group: shape of the cells; for Lysosomotropic behavior in CPA: cluster assignment in words, N-Lauryldiethanolamine at 30 µM.
Method: Initially, 5 µL U2OS medium were added to each well of a 384-well plate (PerkinElmer CellCarrier-384 Ultra). Subsequently, U2OS cell were seeded with a density of 1600 cells per well in 20 µL medium. The plate was incubated for 10 min at room temperature (RT), followed by an additional 4 h incubation (37 °C, 5% CO2). […] Incubation with compound was performed for 20 h (37 °C, 5% CO2). Subsequently, mitochondria were stained with Mito Tracker Deep Red (Thermo Fisher Scientific, Cat. No. M22426). The Mito Tracker Deep Red stock solution (1 mM) was diluted to a final concentration of 100 nM in prewarmed medium. The medium was removed from the plate leaving 10 µL residual volume and 25 µL of the Mito Tracker solution were added to each well. The plate was incubated for 30 min in darkness (37 °C, 5% CO2). To fix the cells, 7 µl of 18.5% formaldehyde in PBS were added, resulting in a final formaldehyde concentration of 3.7%. Subsequently, the plate was incubated for another 20 min in darkness (RT) and washed three times with 70 µL of PBS (Biotek Washer Elx405). Cells were permeabilized by addition of 25 µL 0.1% Triton X-100 to each well, followed by 15 min incubation (RT) in darkness. The cells were washed three times with PBS leaving a final volume of 10 µL. To each well 25 µL of a staining solution were added, which contains 1% BSA, 5 µL/mL Phalloidin (Alexa594 conjugate, Thermo Fisher Scientific, A12381), 25 µg/ml Concanavalin A (Alexa488 conjugate, Thermo Fisher Scientific, Cat. No. C11252), 5 µg/ml Hoechst 33342 (Sigma, Cat. No. B2261-25 mg), 1.5 µg/ml WGA-Alexa594 conjugate (Thermo Fisher Scientific, Cat. No. W11262) and 1.5 µM SYTO 14 solution (Thermo Fisher Scientific, Cat. No. S7576). The plate is incubated for 30 min (RT) in darkness and washed three times with 70 µL PBS. After the final washing step, the PBS was not aspirated. The plates were sealed and centrifuged for 1 min at 50 × g.
The images generated were processed with the CellProfiler package (https://cellprofiler.org/, version 3.0.0) on a computing cluster of the Max Planck Society to extract 1716 cell features per microscope site. The data was further aggregated as medians per well (9 sites → 1 well), then over the three replicates.
Out of the initial 1716 features, a subset of 579 highly reproducible and robust features was determined using a procedure based on the criteria described by Woehrmann et al.[54] Two biological repeats of one plate containing reference compounds were analysed. For every feature, its full profile over each whole plate was calculated. […] This procedure was performed once and served as the basis for all subsequent analyses.
The phenotypic profiles were compiled from the Z-scores of all individual cellular features, where the Z-score is a measure of how far away a data point is from a median value.
Specifically, Z-scores of test compounds were calculated relative to the Median of DMSO controls. Thus, the Z-score of a test compound defines how many MADs (Median Absolute Deviations) the measured value is away from the Median of the controls as illustrated by the following formula: Z-score=valuemeas.-MedianControls/MADControls
The phenotypic compound profile is then determined as the list of Z-scores of all features for one compound and is visualized via heatmap (examplarily see Fig. 2).

Data set [2] has as its system murine mesodermal stem cells (C3H10T1/2). Nature of the data set: Osteogenesis inhibition assay (OIA), purmorphamine-induced alkaline phosphatase expression. The data set is classed as cell-based. The following applies: for IC50: read-out: Osteogenesis inhibition assay IC50.
Method: The osteogenesis inhibition assay was performed as described elsewhere[57]. Briefly, murine mesodermal stem cells (C3H10T1/2) were stimulated with purmorphamine (a Hedgehog agonist) to induce the expression of the osteogenesis marker alkaline phosphatase.
For data set [3] the following is noted: cited from earlier work.
Details of data set [4]: method as in ref EURL ECVAM genotoxicity and carcinogencity database, Madia F et al, 2020. The following applies: scale Mutagenicity I (ECVAM), ref EURL ECVAM genotoxicity and carcinogencity database, Madia F et al, 2020; cited from earlier work.
For data set [5] the following is noted: cited from earlier work. This is another data set of the same source.
The subject of data set [6] is different industrial cell lines. Also noted: method as in PMID 34411651, PMID 32535801, PMID 32748552. The following applies: read-out: EC50 cell growth; cited from earlier work.
The subject of a further data set is CHO cells. Details: method as in ref 22 (supplement). The conditions noted are these: detrimental effect on cell growth; ref 22 (supplement); cited from earlier work.
Setting [7] is: 30 µM, U2OS, 20 h, percentage of altered features (579) vs DMSO controls.
Where [8] appears, read: biosimilarity of CPA sub-profile to cluster.
The mark [9] stands for this setting: in Vivo, Database Genotoxicity & Carcinogenicity ECVAM, ref EURL ECVAM genotoxicity and carcinogencity database, Madia F et al, 2020.
[10] abbreviates: in Vivo, Database Genotoxicity OASIS, ref Yu F. Sasaki et. al., 2000, Critical Reviews in Toxicology,30(6),Pp.629-799.
Where [11] appears, read: in Vitro, Database Genotoxicity & Carcinogenicity ECVAM, ref EURL ECVAM genotoxicity and carcinogencity database, Madia F et al, 2020.
Setting [12] is: CHO DG44, serum-free chemically defined medium, 72 h, 50% inhibition of cell growth.
Setting [13] is: C3H10T1/2, purmorphamine, 96 h, alkaline phosphatase expression.

Method for CHO DG44 cells: The cell line was adapted to grow in suspension without animal-derived supplements. […] This method determines effective concentrations (EC50) that cause 50% inhibition of cell growth. Data evaluation was carried out according to the method described in ASTM E3231-19, “Standard Guide for Cell Culture Growth Assessment of Single-Use Material[23]”. This test defines best practices using serum-free, chemically-defined cell culture medium to prevent false negative results.

In general, EC50 refers to the midpoint of the concentration-response curve. A word on the IC50: it is the concentration that inhibits the measured activity by half. Take `CCCCCCCCCc1ccc(O)cc1` [4-n-Nonylphenol]: the EC50 in the data set with CHO DG44 cells (Cricetulus griseus, CHO-DG44, 72 h) was more than 4500 nM. Besides, the “Induction in CPA” value in data set [1] (setting [7]) is 17 (30 µM) %. The Cell count in data set [1] (50 µM, U2OS, 20 h) was 91 (50 µM) % of control. Further, in data set [1] (setting [8]), the “Highest similarity to biological clusters: DNA synthesis” value was “DNA synthesis (70%)”. In addition, in data set [2] (Mus musculus, C3H 10T1/2, 96 h), the IC50 was 3.8 µM.

Regarding `O=C1CCCCCN1` [105-60-2], the “Chromosome aberration, in Vivo Mammalian Chromosome Aberration Test” value in data set [3] (Database Genotoxicity & Carcinogenicity ECVAM, ref EURL ECVAM genotoxicity and carcinogencity database, Madia F et al, 2020) is listed as “Negative”. Moreover, the “Chromosome aberration, Micronucleus Assay” value in data set [3] (setting [9]), in data set [3] (setting [10]) and in data set [5] (setting [11]) was “Negative” throughout. The “DNA damage and repair, COMET or Alkaline Elution” value in data set [3] (setting [9]) and in data set [5] (setting [11]) was “Negative” each time. The “DNA and protein damage, Liver Micronucleus” value in data set [3] (in Vivo, Database Genotoxicity OASIS, ref T. Shirotori, M. Miyagawa, Proceeding of the 26th JEMS Annual Meeting, Hatano, 1997, p. 83) was “Negative”. In data set [3] (setting [10]), the “DNA damage and repair, Single Cell Gel Electrophoresis (comet) Assay” value is recorded as “Negative”. Further, in data set [4], the “Genetic Toxicity, unscheduled DNA synthesis (UDS in Vivo)” value is on record as “Negative”. Besides, the “Gene mutation, Bacterial Reverse Mutation Assay (e.g. Ames Test)” value (“Gene mutation … (e.g. Ames Test)” below) is “Negative” in data set [5] (Salmonella typhimurium, No Strain Information, in Vitro, Database: Genotoxicity OASIS, ref Mutation Research 584 (2005) 1-256, Kirkland et al.); “Negative” in data set [5] (Salmonella typhimurium, Strain TA 97, in Vitro, Database: Bacterial mutagenicity ISSSTY, ref CCRIS database,Toxnet databases (Romualdo Benigni)); “Negative” in data set [5] (Salmonella typhimurium, Strain TA 98, in Vitro, Database: Bacterial mutagenicity ISSSTY, ref CCRIS database,Toxnet databases (Romualdo Benigni)); “Negative” in data set [5] (Salmonella typhimurium, Strain TA 98, in Vitro, Database: Genotoxicity OASIS, ref P&G); “Negative” in data set [5] (Salmonella typhimurium, Strain TA 100, in Vitro, Database: Bacterial mutagenicity ISSSTY, ref CCRIS database,Toxnet databases (Romualdo Benigni)); “Negative” in data set [5] (Salmonella typhimurium, Strain TA 100, in Vitro, Database: Genotoxicity OASIS, ref P&G). For the same compound, the “Gene mutation … (e.g. Ames Test)” value in data set [5] (Salmonella typhimurium, Strain TA 102, in Vitro, Database: Bacterial mutagenicity ISSSTY, ref CCRIS database,Toxnet databases (Romualdo Benigni)) was “Negative”; in data set [5] (Salmonella typhimurium, Strain TA 1535, in Vitro, Database: Bacterial mutagenicity ISSSTY, ref CCRIS database,Toxnet databases (Romualdo Benigni)), “Negative”; in data set [5] (Salmonella typhimurium, Strain TA 1535, in Vitro, Database: Genotoxicity OASIS, ref P&G) it was “Negative”; in data set [5] (Salmonella typhimurium, Strain TA 1537, in Vitro, Database: Bacterial mutagenicity ISSSTY, ref CCRIS database,Toxnet databases (Romualdo Benigni)), “Negative”; in data set [5] (Salmonella typhimurium, Strain TA 1537, in Vitro, Database: Genotoxicity OASIS, ref P&G), “Negative”; in data set [5] (Salmonella typhimurium, Strain TA 1538, in Vitro, Database: Bacterial mutagenicity ISSSTY, ref CCRIS database,Toxnet databases (Romualdo Benigni)) it was “Negative”. The “Gene mutation … (e.g. Ames Test)” value in data set [5] (setting [11]) was “Negative”; in data set [5] (in Vitro, Salmonella typhimurium, No Strain Information, Database Genotoxicity OASIS, ref Journal of Medicinal Chemistry 48 (1), pp. 312-32, 25, Kazius J, McGuire R., Bursi R) it was “Negative”; in data set [5] (in Vitro, Salmonella typhimurium, Strain TA 97, Database Genotoxicity OASIS, ref P&G), “Negative”; in data set [5] (in Vitro, Salmonella typhimurium, Strain TA 98, Database Genotoxicity OASIS, ref P&G), “Negative”; in data set [5] (in Vitro, Salmonella typhimurium, Strain TA 100, Database Genotoxicity OASIS, ref P&G), “Negative”; in data set [5] (in Vitro, Salmonella typhimurium, Strain TA 102, OECD Guideline 471, Database Genotoxicity OASIS, ref CCRIS database,Toxnet databases) it was “Negative”. Also, the “Gene mutation … (e.g. Ames Test)” value in data set [5] (in Vitro, Salmonella typhimurium, Strain TA 1535, Database Genotoxicity OASIS, ref P&G) was “Negative”; in data set [5] (in Vitro, Salmonella typhimurium, Strain TA 1537, Database Genotoxicity OASIS, ref P&G), “Negative”; in data set [5] (in Vitro, Salmonella typhimurium, Strain TA 1538, Database Genotoxicity OASIS, ref P&G), “Negative”. For the same compound, the “Chromosome aberration, in Vitro Mammalian Chromosome Aberration Test” value is “Positive” in data set [5] (in Vitro, Chinese hamster, Chinese Hamster Lung (CHL), Database Genotoxicity OASIS, ref ECHA, Registration dossier); “Negative” in data set [5] (in Vitro, Chinese hamster, Chinese Hamster Lung (CHL), Duration 24÷48 h, Database Genotoxicity OASIS, ref Sofuni, T., Ed. (1998). Data Book of Chromosomal Aberration Test In Vitro, Revised Edition); “Negative” in data set [5] (setting [11]). In addition, the “Gene mutation, Mammalian Cell Gene Mutation (MLA HPRT)” value in data set [5] (setting [11]) is given as “Negative”. Besides, in data set [5] (in Vitro, T-lymphoma Cell Lines, Database Genotoxicity OASIS, ref Mutation Research 584 (2005) 1-256, Kirkland et al.), the “Gene mutation, Mammalian Cell Gene Mutation Assay” value is “Negative”. In data set [5] (in Vitro, scale Mutagenicity I (ECVAM), ref EURL ECVAM genotoxicity and carcinogencity database, Madia F et al, 2020), the “Genetic Toxicity, unscheduled DNA synthesis (UDS in Vitro)” value is on record as “Negative”.

As for `CCCCCCCCCCCCN(CCO)CCO` [N-Lauryldiethanolamine], the half-maximal effective concentration (EC50) with CHO DG44 cells (setting [12]) came to 2100 nM. The “Induction in CPA” value is 61% and 61 (3 µM) % in data set [1] (3 µM, U2OS, 20 h, percentage of altered features (579) vs DMSO controls); more than 5% in data set [1] (tested concentrations ≤ 50 µM, concentration not given at the place, active threshold 5%). The “U2OS cell count compared to the control” value in data set [1] (30 µM, after 24 h incubation) is given as 50%. The Cell count in data set [1] (50 µM, U2OS, 20 h) was 11 (50 µM) % of control. Also, in data set [1] (Fig. 6, 3 µm), the “Percentage of changed features, all channels” value was in the range of 50 to 90%. The “Percentage of changed features, AreaShape group” value in data set [1] (Fig. 6) is listed as “all features”. The “Concentration from which strong inhibitory effect on cell growth starts” value in data set [1] (U2OS, CPA) is given as not below 30 µM. Further, the “Highest similarity to biological clusters: Cholesterol homeostasis” value in data set [1] (setting [8]) amounted to 88%. In addition, the “Lysosomotropic behavior in CPA” value in data set [1] is recorded as “some lysosomotropic behavior”. The “Toxic concentration in the osteogenesis inhibition assay” value in data set [2] (C3H10T1/2, excluded from dose-response measurement) was not below 10 µM. In data set [2] (setting [13]), the IC50 is not below 10 µM.

On to `Cc1cc(C)c(C(=O)P(=O)(c2ccccc2)c2ccccc2)c(C)c1` [TPO, diphenyl(2,4,6-trimethylbenzoyl)phosphine oxide], for which the 50% effective concentration (EC50) with CHO DG44 cells (Cricetulus griseus, CHO DG44, serum-free chemically defined medium, 72 h, 50% inhibition of cell growth) stood at 4400 nM. Further, the “Induction in CPA” value in data set [1] (setting [7]) is recorded as 11 (30 µM) %. Also, the Cell count in data set [1] (50 µM, U2OS, 20 h) is given as 94 (50 µM) % of control. Also, in data set [1] (Fig. 6), the “Percentage of changed features, nuclei (Hoechst) channel” value is recorded as “approx. 5%” and the “Percentage of changed features, AreaShape group” value is recorded as approximately 30%. Also, the “Highest similarity to biological clusters: HDAC” value in data set [1] (setting [8]) amounted to 77%. For the same compound, the “Lysosomotropic behavior in CPA” value in data set [1] is “lysosomotropic behavior; also recorded: Weak lysosomotropic”. Also, in data set [2] (Mus musculus, C3H 10T1/2, C3H10T1/2, purmorphamine, 96 h, alkaline phosphatase expression), the IC50 came to 5 µM. Further, in data set [5] (not checked for in vivo relevance, ref QSAR Toolbox 4.5 database), the “Risk based on in vitro genotoxicity data from database (from QSAR-toolbox)” value is “No alert”.

With `CC(C)(C)c1ccc(OP(=O)(O)Oc2ccc(C(C)(C)C)cc2C(C)(C)C)c(C(C)(C)C)c1` [bDtBPP, bis(2,4-di-tert-butylphenyl)phosphate], the EC50 in data set [6] was less than 1000 nM; with CHO DG44 cells (setting [12]), 600 nM; in the data set with CHO cells it was less than 1000 nM. The Cell count in data set [1] (50 µM, U2OS, 20 h) is reported as 87 (50 µM) % of control. Further, the “Induction in CPA” value in data set [1] (50 µM, U2OS, 20 h, percentage of altered features (579) vs DMSO controls) was 17 (50 µM) %. Moreover, the “Percentage of changed features, AreaShape group” value in data set [1] (Fig. 6) was “approx. 20%”. The “Highest similarity to biological clusters: DNA synthesis” value in data set [1] (setting [8]) was “DNA synthesis (65%)”. The “Impact on cell growth of U2OS cells” value in data set [1] (concentrations ≤ 50 µM, in words) is “no impact on cell growth”. In data set [2] (setting [13]), the IC50 amounted to 6.8 µM.
